Measurements taken from patent publication US20060115815A1 (priority 2002, published 2006).
Where two headings read alike, the source gives them in different places.

How the values were obtained:
[1] = target: T1, 84V90M (Human immunodeficiency virus type 1 group M subtype B, UniProt P04585, I572V/L578M); assay: cell-based; design: species or system HIV-1
[2] = tested on: 30N82I88D; assay: microbe, parasite or virus in culture; format: cell-based, HIV-1
[3] = target: T1, 84V90M; assay: biochemical; design: species or system HIV-1
[4] = tested on: WT; assay: microbe, parasite or virus in culture; format: cell-based, HIV-1
[5] = tested on: 48V54V82A; design: species or system HIV-1; conditions: MT-4, 48V54V82A; read-out: Cell-based assay (MT-4) EC50/nM 48V54V82A
[6] = tested on: mutant HIV-1 with I84V/L90M mutations in the protease gene; format: cell-based; conditions: MT-4, 84V90M; read-out: Cell-based assay (MT-4) EC50/nM 84V90M
[7] = tested on: 30N82I88D; design: species or system HIV-1; conditions: MT-4, 30N82I88D; read-out: Cell-based assay (MT-4) EC50/nM 30N82I88D
[8] = tested on: WT HIV-1; assay: microbe, parasite or virus in culture; format: cell-based
[9] = tested on: 46I50V; assay: microbe, parasite or virus in culture; format: cell-based, HIV-1
[10] = tested on: 48V54V82A; assay: microbe, parasite or virus in culture; format: cell-based, HIV-1
[11] = target: recombinant HIV-1 protease (Human immunodeficiency virus type 1 group M subtype B, UniProt P04585); assay: biochemical; format: biochemical; conditions: for Ki: read-out: Enzymatic assay Ki
[12] = target: T1, 84V90M; assay: Enzymatic assay, IC50 against 84V90M mutant protease; format: biochemical, HIV-1
[13] = tested on: 46I50V; design: species or system HIV-1; conditions: MT-4, 46I50V; read-out: Cell-based assay (MT-4) EC50/nM 46I50V
[14] = beagle, dog, in vivo, po
[15] = tested on: recombinant HIV-1 strains with resistance mutations in the protease gene; assay: Cross-resistance profile assay, whole panel of mutant viruses; format: cell-based; conditions: {}
[16] = MT-4, 84V90M, read-out: Cell-based assay (MT-4) EC50 84V90M
[17] = MT-4, 30N82I88D, read-out: Cell-based assay (MT-4) EC50 30N82I88D
[18] = 84V90M enzyme, read-out: Enzymatic assay 84V90M IC50
[19] = Human immunodeficiency virus 1, read-out: Cell-based assay (MT-4) EC50 WT
[20] = MT-4, WT, read-out: Cell-based assay (MT-4) EC50/nM WT
[21] = Human immunodeficiency virus 1, read-out: Cell-based assay (MT-4) EC50 46I50V
[22] = Human immunodeficiency virus 1, read-out: Cell-based assay (MT-4) EC50 30N82I88D
[23] = Human immunodeficiency virus 1, read-out: Cell-based assay (MT-4) EC50 48V54V82A
[24] = read-out: Enzymatic assay WT IC50/nM
[25] = Human immunodeficiency virus 1, read-out: EC50 [nM] WT HIV-1

SMILES: Nc1n[nH]c2ccc(CN3C(=O)N(Cc4cccc(C(=O)O)c4)[C@H](Cc4ccccc4)[C@H](O)[C@@H](O)[C@H]3Cc3ccccc3)cc12
- EC50 [1, 16]: > 6000 nM
- EC50 [2, 17]: > 6000 nM
- IC50 [3, 18]: 27 nM

SMILES: Nc1n[nH]c2ccc(CN3C(=O)N(CCCOCP(=O)(O)O)C(Cc4ccccc4)C(O)C(O)C3Cc3ccccc3)cc12 (stereo not drawn) [OCH2PO3H2]
- EC50 [1]: > 6000 nM
- EC50 [4, 19]: 1070 nM
- IC50 [3]: 137 nM

SMILES: O=C1N(Cc2ccccc2)[C@H](Cc2ccccc2)[C@H](O)[C@@H](O)[C@@H](Cc2ccc(OCP(=O)(OCc3ccccc3)OCc3ccccc3)cc2)N1Cc1ccccc1
- EC50 [5]: > 6000 nM
- EC50 [6]: > 6000 nM
- EC50 [7]: 3140 nM
- EC50 [8, 20]: 1770 nM

SMILES: CCOP(=O)(CCCNC(=O)c1cccc(CN2C(=O)N(Cc3cccc(N)c3)C(Cc3ccccc3)C(O)C(O)C2Cc2ccccc2)c1)OCC (stereo not drawn)
- EC50 [9, 21]: 195 nM
- EC50 [1]: 824 nM
- EC50 [4, 19]: 176 nM
- EC50 [2, 22]: 171 nM
- IC50 [3]: 29 nM
- EC50 [10, 23]: 233 nM

SMILES: Nc1n[nH]c2ccc(CN3C(=O)N(Cc4cccc(OCc5ccccc5)c4)C(Cc4ccccc4)C(O)C(O)C3Cc3ccccc3)cc12 (stereo not drawn) [m-OBn]
- EC50 [9, 21]: 601 nM
- EC50 [1]: 2420 nM
- EC50 [4, 19]: 218 nM
- EC50 [2, 22]: 82 nM
- IC50 [3]: 27 nM
- EC50 [10, 23]: 709 nM

SMILES: CCOC(=O)C(C)OP(=O)(CCCNC(=O)c1cccc(CN2C(=O)N(Cc3ccc4[nH]nc(N)c4c3)[C@H](Cc3ccccc3)[C@H](O)[C@@H](O)[C@H]2Cc2ccccc2)c1)Oc1ccccc1 (stereo partly drawn)
- EC50 ([9]; MT-4, 46I50V, read-out: Cell-based assay (MT-4) EC50 46I50V): 209 nM
- EC50 [1, 16]: 1280 nM
- EC50 ([4]; read-out: Cell-based assay (MT-4) EC50 WT): 603 nM
- Ki [11]: 0.112 nM
- IC50 ([11]; read-out: Enzymatic assay WT IC50): 1.4 nM
- EC50 [2, 17]: 678 nM
- IC50 [3, 18]: 6.4 nM
- EC50 ([10]; MT-4, 48V54V82A, read-out: Cell-based assay (MT-4) EC50 48V54V82A): 208 nM

SMILES: O=C1N(Cc2ccccc2)[C@H](Cc2ccccc2)[C@H](O)[C@@H](O)[C@@H](Cc2ccccc2)N1Cc1ccc2[nH]ncc2c1 [drawing 863, reference compound]
- EC50 [1]: 2310 nM
- IC50 [3, 18]: 43.3 nM

SMILES: Nc1cccc(CN2C(=O)N(Cc3cccc(C(=O)O)c3)C(Cc3ccccc3)C(O)C(O)C2Cc2ccccc2)c1 (stereo not drawn)
- EC50 [1]: > 6000 nM
- EC50 [4, 19]: 2340 nM
- EC50 [2, 22]: 3360 nM
- IC50 [3]: 299 nM

SMILES: N#Cc1cc(CN2C(=O)N(Cc3cccc(OCc4ccccc4)c3)[C@H](Cc3ccccc3)[C@H](O)[C@@H](O)[C@H]2Cc2ccccc2)ccc1F
- EC50 [6]: > 600 nM
- IC50 [12]: 114 nM
- Ki [11]: 1.43 nM
- IC50 [11, 24]: 302 nM

SMILES: O=C1N(Cc2ccccc2)[C@H](Cc2ccccc2)[C@H](O)[C@@H](O)[C@@H](Cc2ccccc2)N1Cc1ccc2[nH]ncc2c1 [drawing 870]
- EC50 [13]: 772 nM
- EC50 [5]: 705 nM
- EC50 [7]: 281 nM
- EC50 [8, 20]: 193 nM

SMILES: CCOC(=O)C(C)OP(=O)(COc1ccc(C[C@@H]2[C@H](O)[C@@H](O)[C@@H](Cc3ccccc3)N(Cc3ccccc3)C(=O)N2Cc2ccccc2)cc1)Oc1ccccc1 (stereo partly drawn) [R=H, R1=Ph, R2=Mono-lac-Et]
- EC50 [5]: > 6000 nM
- EC50 [6]: > 6000 nM
- IC50 [12]: 56 nM
- Ki [11]: 0.12 nM
- IC50 [11, 24]: 6.6 nM
- EC50 [7]: 2790 nM
- EC50 [8, 20]: 1730 nM

SMILES: CC(C)CN(C[C@@H](O)[C@H](Cc1ccccc1)NC(=O)O[C@H]1CCOC1)S(=O)(=O)c1ccc(N)cc1 [Amprenavir]
- AUC(2-24 hr) in PBMCs [14]: 102,000 nM · hr
- t1/2 [14]: 1.7 h
- t1/2 (hr) in PBMCs [14]: 1.7 h
- Total No. of Resistant Viruses [15]: 4
- EC50 [8, 25]: 20 nM

SMILES: Cc1c(O)cccc1C(=O)N[C@@H](CSc1ccccc1)[C@H](O)CN1C[C@H]2CCCC[C@H]2C[C@H]1C(=O)NC(C)(C)C [Nelfinavir]
- AUC(2-24 hr) in PBMCs [14]: 33,000 nM · hr
- t1/2 [14]: 3.0 h
- t1/2 (hr) in PBMCs [14]: 3.0 h
- Total No. of Resistant Viruses [15]: 9
- EC50 [8, 25]: 14 nM

SMILES: COc1ccc(CN2C(=O)N(Cc3ccc(O)cc3)[C@H](Cc3ccccc3)[C@H](O)[C@@H](O)[C@H]2Cc2ccccc2)cc1C#N
- EC50 [6]: 3120 nM
- IC50 [12]: 348 nM
- Ki [11]: > 5 nM
- IC50 [11, 24]: 130 nM
- EC50 [8, 20]: 2010 nM
